Experimental data as given in patent US20240066155A1, “DUAL MODE RADIOTRACER AND -THERAPEUTICS” (priority 2021, published 2024).

What was measured:
[1] = literature, Wängler et al. Bioconjug Chem 2010; cited from earlier work
PSMA = target: T1, PSMA (Homo sapiens, UniProt Q04609); assay: Competitive binding studies on LNCaP cells vs ([125I]BA)KuE (affinity, IC50); conditions: 1 h, 4° C., natLu complexes, n=3
T1 construct: endogenous in cells; host or cells: LNCaP cells
Experimental: (§1) Competitive binding studies were determined on LNCaP cells (1.5×10^5 cells in 1 mL/well) after incubation at 4° C. for 1 h, using (((S)-1-carboxy-5-(4-([^125I]iodo)benzamido)pentyl)carbamoyl)-L-glutamic acid ([^125I]BA)KuE; 0.2 nM/well) as reference radioligand (n=3). Internalization studies of the radiolabeled ligands (1.0 nM/well) were performed on LNCaP cells (1.25×10^5 cells in 1 mL/well) at 37° C. for 1 h and accompanied by ([^125I]BA)KuE (0.2 nM/well), as reference. Data were corrected for non-specific binding and normalized to the specific internalization observed for the reference (n=3). A detailed description of the experimental procedures was previously published (Wurzer A, et al. J Nucl Med. 2020; 61: 735-742).

[2] = system: LNCaP tumor-bearing male CB-17 SCID mice; assay: Ex vivo biodistribution in LNCaP tumor-bearing CB-17 SCID mice; conditions: 24 h p.i.
Experimental: All animal experiments were conducted in accordance with general animal welfare regulations in Germany (German animal protection act, as amended on 18 May 2018, Art. 141 G v. 29 Mar. 2017 I 626, approval no. 55.2-1-54-2532-71-13) and the institutional guidelines for the care and use of animals. LNCaP tumor xenografts were established in 6-8 weeks old male CB-17 SCID mice as described previously (Wurzer A, et al. J Nucl Med. 2020; 61: 735-742). Biodistribution Studies. The ^177Ludabeled PSMA inhibitors (2-5 MBq; 0.1 nmol) were injected under isoflurane anesthesia into the tail vein of LNCaP tumor-bearing male CB-17 SCID mice that were sacrificed 24 h post injection (p.i.) (n=4-5). Selected organs were removed, weighed, and measured in a counter. All rhPSMA ligands were evaluated in mice during the same time period (Q1/2020), whereas ^177Ludabeled PSMA-617 and PSMA I&T (Wirtz M, et al. EJNMMI Res. 2018; 8: 84) were assessed previously using the identical cell line, mouse model and experimental procedure.

LNCaP cells = assay: PSMA-mediated internalization into LNCaP cells; type: cell-based; conditions: 1 h, 37° C., percentage of reference ligand ([125I]BA)KuE, n=3
Experimental: as §1

human serum albumin = target: T2, human serum albumin (Homo sapiens, UniProt P02768); assay: Binding to human serum albumin by albumin mediated size exclusion chromatography (AMSEC); type: in vitro ADME; conditions: size exclusion chromatography with HSA in the mobile phase, 177Lu-labeled
T2 construct: purchased Biowest, Nuaillé, France
Experimental: Binding of ^177Lu-labeled ligands to HSA was assessed by albumin mediated size exclusion chromatography (AMSEC). A gel filtration size exclusion column (Superdex 75 Increase 10/300 GL, GE Healthcare, Uppsala, Sweden) was used with HSA buffer at physiological concentration (700 μM, Biowest, Nuaillé, France) as mobile phase (constant flow rate of 0.8 mL/min at room temperature). For calibration purposes, a commercially available set of proteins (GE Healthcare, Buckinghamshire, UK) was used. Under these chromatographic conditions, the retention time of a radioligand (1.0 MBq, 10-20 GBq/μmol) depends on the extent of HSA/ligand interactions and thus, by means of the calibration with the aforementioned set of proteins, can be translated into an AMW (expressed in kDa) as a parameter allowing to quantify the extent of HSA binding. The detection window ranges between 2.3 kDa ([^18F]Fluoride; no HSA interaction) and 70.2 kDa (experimental molecular weight of HSA; maximum HSA interaction).

[3] = Lipophilicity, n-octanol/PBS (pH 7.4) distribution; type: physicochemical; conditions: n-octanol/PBS pH 7.4, 177Lu-labeled, n=6
Experimental: Approximately 1 MBq of the ^177Lu-labeled PSMA ligand was dissolved in 1 mL of a 1:1 mixture (v/v) of phosphate-buffered saline (PBS, pH 7.4) and n-octanol (n=6). After vigorous mixing of the suspension for 3 min, the vial was centrifuged at 15000×g for 3 min and 100 μL aliquots of both layers were measured in a γ-counter. Finally, the ratio of the radioactivity detected in the n-octanol sample and the PBS buffer was calculated and expressed as distribution ratio log D7.4.

T2 sequence (P02768 25-609): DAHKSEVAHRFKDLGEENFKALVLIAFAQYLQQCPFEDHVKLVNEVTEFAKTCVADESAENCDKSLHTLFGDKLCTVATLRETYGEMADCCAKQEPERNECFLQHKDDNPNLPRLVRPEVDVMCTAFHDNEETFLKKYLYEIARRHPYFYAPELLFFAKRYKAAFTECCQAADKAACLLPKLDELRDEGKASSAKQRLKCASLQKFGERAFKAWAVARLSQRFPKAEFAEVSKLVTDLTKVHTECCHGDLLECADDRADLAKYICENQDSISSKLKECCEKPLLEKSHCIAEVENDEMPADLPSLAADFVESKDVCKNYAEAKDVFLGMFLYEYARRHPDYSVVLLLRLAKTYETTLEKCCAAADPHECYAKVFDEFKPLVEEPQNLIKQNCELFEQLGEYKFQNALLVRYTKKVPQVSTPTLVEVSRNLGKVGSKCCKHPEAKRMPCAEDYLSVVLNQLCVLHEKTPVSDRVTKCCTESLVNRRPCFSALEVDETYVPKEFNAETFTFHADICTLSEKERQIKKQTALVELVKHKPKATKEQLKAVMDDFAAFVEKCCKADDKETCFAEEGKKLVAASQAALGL
T1 sequence (Q04609 whole entry): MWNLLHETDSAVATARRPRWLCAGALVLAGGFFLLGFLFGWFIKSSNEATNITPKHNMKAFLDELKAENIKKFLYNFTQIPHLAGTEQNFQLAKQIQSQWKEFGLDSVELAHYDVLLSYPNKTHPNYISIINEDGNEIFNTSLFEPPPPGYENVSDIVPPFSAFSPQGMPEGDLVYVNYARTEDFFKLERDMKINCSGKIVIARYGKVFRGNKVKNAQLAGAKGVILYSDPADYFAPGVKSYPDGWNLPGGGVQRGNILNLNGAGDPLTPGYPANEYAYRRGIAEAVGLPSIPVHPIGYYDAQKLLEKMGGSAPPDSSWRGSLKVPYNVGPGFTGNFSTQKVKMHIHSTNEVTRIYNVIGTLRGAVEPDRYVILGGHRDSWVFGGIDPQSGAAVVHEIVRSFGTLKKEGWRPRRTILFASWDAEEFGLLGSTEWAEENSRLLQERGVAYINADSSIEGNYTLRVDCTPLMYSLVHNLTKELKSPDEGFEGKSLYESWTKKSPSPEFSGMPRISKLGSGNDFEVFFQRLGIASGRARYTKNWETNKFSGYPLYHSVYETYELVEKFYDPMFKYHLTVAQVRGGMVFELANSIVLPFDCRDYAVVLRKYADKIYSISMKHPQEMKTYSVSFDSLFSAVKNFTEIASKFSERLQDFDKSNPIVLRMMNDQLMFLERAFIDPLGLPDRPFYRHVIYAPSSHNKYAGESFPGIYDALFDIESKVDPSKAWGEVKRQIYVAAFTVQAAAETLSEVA

In the case of SIFA-Asn(AcNH-β-Glc)-Tyr^3-octreotate, the “log P(ow)” value [1] is listed as 1.23.
In the case of “SIFA-Asn(AcNH-β-Glc)-PEG-Tyr^3-octreotate”, the “log P(ow)” value [1] is listed as 0.96.
For CC(C)(C)[Si](F)(c1ccc(C(=O)NC[C@@H](NC(=O)CC[C@@H](C(=O)O)N2CCN(CC(=O)[O-])CCN(CC(=O)[O-])CCN(CC(=O)[O-])CC2)C(=O)N[C@H](CCCCNC(=O)CCC(=O)NCCC[C@@H](NC(=O)CC[C@H](NC(=O)N[C@@H](CCC(=O)O)C(=O)O)C(=O)O)C(=O)O)C(=O)O)cc1)C(C)(C)C.[Lu+3] [[^177Lu, ^19F]rhPSMA-7.3], the IC50 (PSMA) was 3.29 ± 1 nM, the Tumor-to-organ ratio adrenals ([2]; n=5, mean of ratios per mouse) was 44.34 and the Tumor-to-organ ratio blood ([2]; n=5, mean of ratios per mouse) was 4255. It also gave a Tumor-to-organ ratio bone ([2]; n=5, mean of ratios per mouse) of 625.98, a Tumor-to-organ ratio heart ([2]; n=5, mean of ratios per mouse) of 542.49 and a Tumor-to-organ ratio intestine ([2]; n=5, mean of ratios per mouse) of 254.02. The Tumor-to-organ ratio kidney ([2]; n=5, mean of ratios per mouse) was 1.64, the Tumor-to-organ ratio liver ([2]; n=5, mean of ratios per mouse) was 78.11 and the Tumor-to-organ ratio lung ([2]; n=5, mean of ratios per mouse) was 239.97. For the same compound, the Tumor-to-organ ratio muscle ([2]; n=5, mean of ratios per mouse) was 2123.58, the Tumor-to-organ ratio pancreas ([2]; n=5, mean of ratios per mouse) was 754.34 and the “Tumor-to-organ ratio parotid gl.” value ([2]; n=5, mean of ratios per mouse) was 176.66. For the same compound, the Tumor-to-organ ratio spleen ([2]; n=5, mean of ratios per mouse) was 34.32, the Tumor-to-organ ratio stomach ([2]; n=5, mean of ratios per mouse) was 453.70 and the “Tumor-to-organ ratio submand. gl.” value ([2]; n=5, mean of ratios per mouse) was 290.08. For the same compound, the Tumor-to-organ ratio blood ([2]; n=5, mean of ratios per mouse, listed as [^177Lu]rhPSMA-7.3) was 4255.56, the Activity accumulation adrenals ([2]; n=5, mean, complete dataset) was 0.4233 % ID/g and the Activity accumulation blood ([2]; n=5, mean, complete dataset) was 0.0046 % ID/g. For the same compound, the Activity accumulation bone ([2]; n=5, mean, complete dataset) was 0.0307 % ID/g, the Activity accumulation heart ([2]; n=5, mean, complete dataset) was 0.0333 % ID/g and the Activity accumulation intestine ([2]; n=5, mean, complete dataset) was 0.1001 % ID/g. It also gave an Activity accumulation kidney ([2]; n=5, mean, complete dataset) of 11.4±1.4 % ID/g, an Activity accumulation liver ([2]; n=5, mean, complete dataset) of 0.2352 % ID/g and an Activity accumulation lung ([2]; n=5, mean, complete dataset) of 0.0768 % ID/g. The Activity accumulation muscle ([2]; n=5, mean, complete dataset) was 0.0094 % ID/g, the Activity accumulation pancreas ([2]; n=5, mean, complete dataset) was 0.0241 % ID/g and the “Activity accumulation parotid gl.” value ([2]; n=5, mean, complete dataset) was 0.1068 % ID/g. The Activity accumulation spleen ([2]; n=5, mean, complete dataset) was 0.5817 % ID/g, the Activity accumulation stomach ([2]; n=5, mean, complete dataset) was 0.0434 % ID/g and the “Activity accumulation submand. gl.” value ([2]; n=5, mean, complete dataset) was 0.0644 % ID/g. The Activity accumulation tumor ([2]; n=5, mean, complete dataset, LNCaP tumor) was 18.1740 % ID/g, the Activity accumulation kidney ([2]; n=5, mean, complete dataset, listed as [^177Lu]rhPSMA-7.3) was 11.3738 % ID/g and the “Internalization [% IBA-KuE]” value (LNCaP cells) was 184.4 ± 11.8 % IBA-KuE. For the same compound, the “MWapp [kDa] (apparent molecular weight, AMW; HSA binding)” value (human serum albumin) was 30.4 kDa and the logD7.4 [3] was −4.12 ± 0.11.
